From patent publication US20230203041A1, “ANTAGONISTS OF THE ADENOSINE A2A RECEPTOR” (AdoRx Therapeutics Limited, priority 2020, published 2023)

Tests used:
[1] = clinical trials, preliminary data, cited from earlier work
[2] = biological target: programmed death receptor-1 (PD-1) (Homo sapiens, UniProt Q15116); conditions: cited from earlier work
solid tumors = conditions: Rutkowski et al. 2019; cited from earlier work
[3] = biological target: T1, human Adenosine A2a receptor (Homo sapiens, UniProt P29274); test: Adenosine receptor TR-FRET binding assay (CA200645 displacement), A2a; conditions: 100 nM CA200645, CHO cell membranes, 2 hours at room temperature
T1 construct: expressed in transfected cells; host or cells: CHO cell membranes

[4] = biological target: T2, human Adenosine A2b receptor (Homo sapiens, UniProt P29275); test: Adenosine receptor TR-FRET binding assay (CA200645 displacement), A2b; conditions: 30 nM CA200645, CHO cell membranes, 2 hours at room temperature
T2 construct: expressed in transfected cells; host or cells: CHO cell membranes
T2 sequence (P29275 1-332): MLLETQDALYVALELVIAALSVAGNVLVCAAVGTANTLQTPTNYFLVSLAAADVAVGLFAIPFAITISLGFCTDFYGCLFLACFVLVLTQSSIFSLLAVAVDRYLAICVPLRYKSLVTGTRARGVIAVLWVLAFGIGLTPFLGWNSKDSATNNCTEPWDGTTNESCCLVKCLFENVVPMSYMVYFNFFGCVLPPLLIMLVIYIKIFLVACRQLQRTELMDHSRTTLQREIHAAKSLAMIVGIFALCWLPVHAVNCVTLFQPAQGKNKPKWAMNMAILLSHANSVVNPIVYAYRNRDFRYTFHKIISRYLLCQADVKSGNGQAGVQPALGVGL
Experimental: (§1) All FRET binding experiments were conducted at room temperature in white 384-well plates, in assay binding buffer containing 1×LabMed (Cisbio, France), 100 μg/mL saponin, 1% DMSO and 0.02% pluronic acid. Binding of the fluorescently labelled Adenosine receptor antagonist XAC (CA200645, FRET acceptor) to terbium-labelled A1, A2a, A2b and A3 adenosine receptors (FRET donors) was detected by time-resolved FRET due to the close proximity of the donor and acceptor in a binding event. To investigate the ability of unlabelled test compounds to bind to Adenosine A1, A2a, A2b and A3 receptors, dose response curves were constructed that determined the ability of a range of concentrations to inhibit the binding of 30 nM CA200645 to the A2b receptor and 100 nM CA200645 to the A1, A2a, and A3 receptor.
(§2) Serial dilution (1:3 dilutions) of test compounds in neat DMSO and transfer of a 400 nL sample of test compound into the assay plate was carried out using the Mosquito (TTP Labtech, UK). The compound samples were incubated for 2 hours at room temperature with a fixed concentration of CA200645 defined for each receptor (see above) and CHO cell membranes containing the human Adenosine A1 (0.5 μg/well), A2a (0.3 μg/well), A2b (1 μg/well) or A3 (1 μg/well) receptor in 40 μL of assay buffer. Total and non-specific binding of CA200645 was determined in the absence and presence of 10 μM XAC, respectively. Following 2 hours incubation, the level of CA200645 binding was detected on a Pherastar FSX (BMG Labtech, Germany) using standard TR-FRET settings. The terbium donor was excited with three laser flashes at a wavelength of 337 nm, and donor and acceptor emission was detected at 620 nm and 665 nm wavelengths, respectively. FRET ratios were obtained by multiplying the acceptor/donor ratio value by 10,000. Specific binding was determined by subtracting the non-specific binding FRET ratio from the total binding FRET ratio. Compound IC50 curves were analysed using GraphPad Prism 7.0 (GraphPad, USA) and Ki affinity values were determined from the obtained IC50 values using the method of Cheng and Prusoff.

human PBMCs = test: CD3/CD28 stimulated IL-2 release NECA reversal assay in human PBMCs; format: cell-based; conditions: PBMC, CD3/CD28 antibody stimulated, 1 uM NECA, 24 hours, IL-2 in culture supernatant;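 also: dose-response as % inhibition where 100% equals no-NECA control wells with CD3/CD28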
Outline: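 PBMCs from citrated donor blood, 50,000 cells/well on plate-bound CD3 antibody (1 ug/ml), with 1 ug/ml CD28 antibody, 1 uM NECA and antagonist at 0.003-10 μM final. After 24 h at 37° C, supernatant IL-2 was measured by MSD immunoassay.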

[5] = system: CD8+ T cells in human whole blood; test: Measurement of pCREB in CD8+ T cells in human whole blood; format: cell-based; conditions: T-cell, 1 h; heparinised human whole blood, rolipram, 3 μM NECA, 60 min, phospho-CREB in CD8+ T cells by FACS
Outline: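 Heparinised human whole blood preincubated 20 min at 37 °C with serially diluted A2a antagonists plus rolipram, then stimulated 60 min with 3 μM NECA (final). After fixation and RBC lysis, permeabilized leukocytes stained for phospho-CREB and CD8; pCREB in CD8+ T cells read by flow cytometry.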

[6] = biological target: T3, human Adenosine A1 receptor (Homo sapiens, UniProt P30542); test: Adenosine receptor TR-FRET binding assay (CA200645 displacement), A1
T3 sequence (P30542 1-326): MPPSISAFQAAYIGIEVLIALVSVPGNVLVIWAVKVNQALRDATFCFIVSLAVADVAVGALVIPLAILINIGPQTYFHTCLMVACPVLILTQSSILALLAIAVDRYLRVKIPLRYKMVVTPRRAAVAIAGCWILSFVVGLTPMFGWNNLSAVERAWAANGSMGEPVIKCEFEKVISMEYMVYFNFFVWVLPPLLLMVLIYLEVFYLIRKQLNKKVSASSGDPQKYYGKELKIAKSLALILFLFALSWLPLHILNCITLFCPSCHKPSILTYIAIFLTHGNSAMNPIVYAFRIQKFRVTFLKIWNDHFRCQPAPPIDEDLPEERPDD

[7] = biological target: T4, human Adenosine A3 receptor (Homo sapiens, UniProt P0DMS8); test: Adenosine receptor TR-FRET binding assay (CA200645 displacement), A3
T4 sequence (P0DMS8 1-318): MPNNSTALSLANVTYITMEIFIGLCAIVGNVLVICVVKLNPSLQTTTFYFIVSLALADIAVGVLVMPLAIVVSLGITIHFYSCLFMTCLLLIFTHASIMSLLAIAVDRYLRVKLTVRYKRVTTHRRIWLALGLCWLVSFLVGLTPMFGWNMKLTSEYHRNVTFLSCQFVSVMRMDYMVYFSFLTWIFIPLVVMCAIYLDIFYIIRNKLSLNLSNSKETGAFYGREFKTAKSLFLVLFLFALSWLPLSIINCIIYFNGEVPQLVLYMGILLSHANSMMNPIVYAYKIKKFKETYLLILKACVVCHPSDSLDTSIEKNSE
Experimental: as §1, §2

T1 sequence (P29274 whole entry): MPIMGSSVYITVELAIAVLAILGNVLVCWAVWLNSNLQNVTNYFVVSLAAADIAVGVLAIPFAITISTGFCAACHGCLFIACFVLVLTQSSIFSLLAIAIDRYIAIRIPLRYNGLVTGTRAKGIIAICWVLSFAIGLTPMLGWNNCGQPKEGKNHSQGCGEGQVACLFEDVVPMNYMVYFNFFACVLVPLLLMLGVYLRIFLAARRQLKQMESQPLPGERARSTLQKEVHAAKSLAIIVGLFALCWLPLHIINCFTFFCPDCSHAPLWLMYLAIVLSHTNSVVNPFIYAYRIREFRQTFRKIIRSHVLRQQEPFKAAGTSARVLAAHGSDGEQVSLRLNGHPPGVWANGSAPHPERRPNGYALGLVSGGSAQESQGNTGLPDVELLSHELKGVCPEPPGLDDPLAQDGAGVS
Chain of programmed death receptor-1 (PD-1) (Q15116 25-288): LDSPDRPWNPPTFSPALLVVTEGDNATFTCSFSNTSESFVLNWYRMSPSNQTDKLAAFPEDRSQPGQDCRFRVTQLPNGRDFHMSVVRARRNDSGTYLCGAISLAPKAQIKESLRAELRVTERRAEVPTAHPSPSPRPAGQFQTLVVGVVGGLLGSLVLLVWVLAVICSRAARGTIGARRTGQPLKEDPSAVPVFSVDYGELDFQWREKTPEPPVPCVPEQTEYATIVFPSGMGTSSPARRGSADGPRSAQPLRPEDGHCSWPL

In the case of `Cc1ccc(-c2nc(N)nc3c2nnn3Cc2cccc(CO[C@H]3CCOC3)n2)o1` [CPI-444], the tolerability ([1]; monotherapy and combination with atezolizumab) is listed as “well tolerated”, the “CD8+ T infiltration into tumour tissue” value ([1]; early indications) is listed as “enhancing CD8+ T infiltration into tumour tissue” and the tumour size ([1]; early indications) is listed as “reducing tumour size”.
For “Cetrelimab: a fully human immunoglobulin (Ig) G4 kappa monoclonal antibody that binds to programmed death receptor-1 (PD-1) with high affinity and specificity”, the “binding to PD-1” value [2] is given as “high affinity and specificity” and the “activity in solid tumors” value (solid tumors) is given as “activity in solid tumors”.
Work on `Cc1cc(-c2c(-c3cccc(C#N)c3)nn3ccc(C(=O)NCC(C)(C)O)nc23)cc(C(F)(F)F)n1` [Example 12.9, 2-(3-Cyanophenyl)-N-(2-hydroxy-2-methyl-propyl)-3-[2-methyl-6-(trifluoromethyl)-4-pyridyl]pyrazolo[1,5-a]pyrimidine-5-carboxamide] yielded a Ki [3] of 0.1 nM, a Ki [4] of 6 nM and an IC50 (human PBMCs) of 2 nM. For the same molecule, the IC50 [5] was 80 nM, the Ki [6] was 47 nM and the Ki [7] was 860 nM.
Work on `Cc1cc(-c2c(-c3cccc(C#N)c3C)nn3ccc(C(=O)NCC(C)(C)O)nc23)cc(C)n1` [Example 103, 2-(3-Cyano-2-methyl-phenyl)-3-(2,6-dimethyl-4-pyridyl)-N-(2-hydroxy-2-methyl-propyl)pyrazolo[1,5-a]pyrimidine-5-carboxamide] yielded a Ki [3] of 0.3 nM, a Ki [4] of 22 nM and an IC50 (human PBMCs) of 24 nM. For the same molecule, the IC50 [5] was 30 nM, the Ki [6] was 298 nM and the Ki [7] was over 1000 nM.
